One may read the IC50 as the concentration that inhibits the measured activity by half.

Here are results for 38 compounds from US10981879B2, “Thioether triazolopyridine and triazolopyrimidine inhibitors of myeloperoxidase” (BRISTOL-MYERS SQUIBB COMPANY, priority 2014, dated 2021).

The target of this test is myeloperoxidase (MPO) (Homo sapiens (Human), UniProt P05164). The test is described as follows: MPO chlorination assay (APF). It is filed as biochemical. To be noted: MPO chlorination assay, ranges given; read-out: MPO chlorination assay IC50. The method, then: MPO chlorination activity was measured in 100 mM KPi (pH 7.4) by utilizing the non-fluorescent reagent Aminophenyl fluorescein (APF, Invitrogen catalog #A36003). APF is cleaved by (—OCl) to yield the fluorescent compound fluorescein. Reactions were carried out in 50 μL total volume by adding a 25 μL mixture of 200 pM myeloperoxidase and 120 mM NaCl to 100 nL inhibitor in 100% DMSO in a 384 well, non-binding surface clear bottom plate (CORNING® #3655). Enzyme, inhibitor, and chloride were preincubated for ten minutes at rt.
After the ten minute preincubation, 25 μL of an APF mixture containing […], 120 mM NaCl and 10 μM H2O2 was added to the plate using the internal dispensing system of a Hammatsu FDSS 6000. Kinetic determinations were carried out immediately on the FDSS 6000 (3 minute kinetic read, 1 read every second, ex: 485 nm, em: 535 nm). IC50 values for inhibitors were calculated by taking the slope of the linear portion of the kinetic measurement (20 seconds to ˜80-120 secs). […]
[formula] where A=minimal Y value (activity level of inhibited sample), B=maximal Y value (activity level of uninhibited sample), C=Log IC50, D=Hill Slope, x=concentration of inhibitor. EPX Bromination Assay

Chain of myeloperoxidase (MPO) (P05164 49-745): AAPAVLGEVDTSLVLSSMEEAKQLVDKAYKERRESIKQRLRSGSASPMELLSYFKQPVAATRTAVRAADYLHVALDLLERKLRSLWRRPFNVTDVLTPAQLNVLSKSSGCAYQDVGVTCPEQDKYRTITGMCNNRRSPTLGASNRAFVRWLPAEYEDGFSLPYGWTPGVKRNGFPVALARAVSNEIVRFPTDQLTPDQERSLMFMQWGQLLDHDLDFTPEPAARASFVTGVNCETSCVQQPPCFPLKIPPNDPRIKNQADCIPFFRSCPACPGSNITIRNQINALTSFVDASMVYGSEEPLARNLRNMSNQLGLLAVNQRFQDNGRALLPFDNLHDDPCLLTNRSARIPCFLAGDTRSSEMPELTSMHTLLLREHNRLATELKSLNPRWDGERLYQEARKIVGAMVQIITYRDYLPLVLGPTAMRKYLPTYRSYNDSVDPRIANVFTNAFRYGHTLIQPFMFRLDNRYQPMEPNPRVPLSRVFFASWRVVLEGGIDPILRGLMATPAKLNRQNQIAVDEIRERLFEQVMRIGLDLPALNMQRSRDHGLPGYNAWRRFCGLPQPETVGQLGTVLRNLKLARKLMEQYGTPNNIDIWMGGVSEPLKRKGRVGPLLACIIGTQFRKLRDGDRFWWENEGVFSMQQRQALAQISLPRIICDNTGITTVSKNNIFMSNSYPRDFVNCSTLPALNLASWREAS

On to `Nc1cc(SCc2ccccc2)c2nn[nH]c2n1` [Example 1, 7-(Benzylthio)-3H-[1,2,3]triazolo[4,5-b]pyridin-5-amine], for which the IC50 was at most 60 nM.

With `Nc1cc(SCc2ccccc2Cl)c2nn[nH]c2n1` [Example 4, 7-((2-chlorobenzyl)thio)-3H-[1,2,3]triazolo [4,5-b]pyridin-5-amine], the IC50 is at most 60 nM. To `Nc1cc(SCc2ccccc2C(F)(F)F)c2nn[nH]c2n1` [Example 5, 7-((2-(trifluoromethyl)benzyl)thio)-3H-[1,2,3] triazolo[4,5-b]pyridin-5-amine] belongs at most 60 nM; to `Nc1cc(SCc2cccc(F)c2)c2nn[nH]c2n1` [Example 6, 7-((3-fluorobenzyl)thio)-3H-[1,2,3]triazolo [4,5-b]pyridin-5-amine], at most 60 nM; to `Nc1cc(SCc2ccc(Cl)cc2)c2nn[nH]c2n1` [Example 8, 7-((4-chlorobenzyl)thio)-3H-[1,2,3]triazolo [4,5-b]pyridin-5-amine], at most 60 nM.

Regarding `COc1ccc(CSc2cc(N)nc3[nH]nnc23)cc1` [Example 9, 7-((4-methoxybenzyl)thio)-3H-[1,2,3]triazolo [4,5-b]pyridin-5-amine], the IC50 was at most 60 nM. The figure for `Nc1cc(SCc2c(F)cccc2F)c2nn[nH]c2n1` [Example 10, 7-((2,6-Difluorobenzyl)thio)-3H-[1,2,3]triazolo[4,5-b]pyridin-5-amine] is at most 60 nM. `N#Cc1ccc(-n2cccn2)cc1CSc1cc(N)nc2[nH]nnc12` [Example 12, 2-(((5-Amino-3H-[1,2,3]triazolo[4,5-b]pyridin-7-yl)thio)methyl)-4-(1H-pyrazol-1-yl)benzonitrile]: the IC50 was at most 60 nM. To `Nc1cc(SC(CCCNCc2ccccc2)c2ccccc2)c2nn[nH]c2n1` (centres unmarked) [Example 14, 7-((4-(Benzylamino)-1-phenylbutyl)thio)-3H-[1,2,3]triazolo[4,5-b]pyridin-5-amine] belongs at most 60 nM; to `Nc1cc(SCc2cccc(CN3CCCC3)c2)c2nn[nH]c2n1` [Example 15, 7-((3-(Pyrrolidin-1-ylmethyl)benzyl)thio)-3H-[1,2,3]triazolo[4,5-b]pyridin-5-amine], at most 60 nM.

Regarding `Cn1nc(C2CC2)c(F)c1CSc1cc(N)nc2[nH]nnc12` [Example 16, 7-(((3-Cyclopropyl-4-fluoro-1-methyl-1H-pyrazol-5-yl)methyl)thio)-3H-[1,2,3]triazolo[4,5-b]pyridin-5-amine], the IC50 lay within 60 to 200 nM.

For the compound `Cn1nc(-c2ccccc2)c(F)c1CSc1cc(N)nc2[nH]nnc12` [Example 17, 7-(((4-Fluoro-1-methyl-3-phenyl-1H-pyrazol-5-yl)methyl)thio)-3H-[1,2,3]triazolo[4,5-b]pyridin-5-amine], the IC50 is at most 60 nM. To `CS(=O)(=O)c1cc(Cl)ccc1CSc1cc(N)nc2[nH]nnc12` [Example 18, 7-((4-chloro-2-(methylsulfonyl)benzyl)thio)-3H-[1,2,3]triazolo[4,5-b]pyridin-5-amine] belongs at most 60 nM. On to `Nc1cc(SCc2cc(F)ccc2F)c2nn[nH]c2n1` [Example 19, 7-((2,5-difluorobenzyl)thio)-3H-[1,2,3]triazolo[4,5-b] pyridin-5-amine], for which the IC50 is at most 60 nM. The figure for `N#Cc1ccc(F)cc1CSc1cc(N)nc2[nH]nnc12` [Example 20, 2-(((5-amino-3H-[1,2,3]triazolo[4,5-b]pyridin-7-yl)thio)methyl)-4-fluorobenzonitrile] is at most 60 nM; for `N#Cc1cc(Br)ccc1CSc1cc(N)nc2[nH]nnc12` [Example 21, 2-(((5-amino-3H-[1,2,3]triazolo[4,5-b]pyridin-7-yl)thio)methyl)-5-bromobenzonitrile] it is 60 to 200 nM; for `Cc1ccc(-c2nc(CSc3cc(N)nc4[nH]nnc34)c(C)s2)cc1` [Example 22, 7-(((5-methyl-2-(p-tolyl)thiazol-4-yl)methyl)thio)-3H-[1,2,3]triazolo[4,5-b]pyridin-5-amine] it is 60 to 200 nM. To `Nc1cc(SCc2c(F)cc(Cl)cc2F)c2nn[nH]c2n1` [Example 23, 7-((4-chloro-2,6-difluorobenzyl)thio)-3H-[1,2,3]triazolo[4,5-b]pyridin-5-amine] belongs at most 60 nM; to `Cc1cc(CSc2cc(N)nc3[nH]nnc23)c(Cl)nc1Cl` [Example 24, 7-(((2,6-dichloro-5-methylpyridin-3-yl)methyl)thio)-3H-[1,2,3]triazolo[4,5-b]pyridin-5-amine], 60 to 200 nM; to `Nc1cc(SCc2cccc(CO)n2)c2nn[nH]c2n1` [Example 25, (6-(((5-amino-3H-[1,2,3]triazolo[4,5-b]pyridin-7-yl)thio)methyl)pyridin-2-yl) methanol], 60 to 200 nM. To `COC(=O)c1ncccc1CSc1cc(N)nc2[nH]nnc12` [Example 26, methyl 3-(((5-amino-3H-[1,2,3]triazolo[4,5-b]pyridin-7-yl)thio)methyl)picolinate] belongs 200 to 1000 nM. Turning to `Nc1cccc(CSc2cc(N)nc3[nH]nnc23)n1` [Example 27, 7-(((6-aminopyridin-2-yl)methyl)thio)-3H-[1,2,3] triazolo[4,5-b]pyridin-5-amine], the IC50 lay in the range of 200 to 1000 nM. For the compound `Nc1cc(SCc2ccccc2OC(F)(F)F)c2nn[nH]c2n1` [Example 29, 7-((2-(trifluoromethoxy)benzyl)thio)-3H-[1,2,3] triazolo[4,5-b]pyridin-5-amine], the IC50 is at most 60 nM.

With `CC(Sc1cc(N)nc2[nH]nnc12)c1ccccc1C(F)(F)F` (centres unmarked) [Example 30, 7-((1-(2-(trifluoromethyl)phenyl)ethyl)thio)-3H-[1,2,3]triazolo[4,5-b]pyridin-5-amine], the IC50 was in the range of 60 to 200 nM.

As for `COC(=O)c1ccc2nc(CSc3cc(N)nc4[nH]nnc34)ccc2c1` [Example 31, methyl 2-(((5-amino-3H-[1,2,3]triazolo[4,5-b]pyridin-7-yl)thio)methyl)quinoline-6-carboxylate], the IC50 lay in the range of 200 to 1000 nM. Consider `Nc1cc(SCc2cnn(Cc3ccccc3)c2)c2nn[nH]c2n1` [Example 32, 7-(((1-benzyl-1H-pyrazol-4-yl)methyl)thio)-3H-[1,2,3] triazolo[4,5-b]pyridin-5-amine], for which the IC50 lay within 60 to 200 nM. To `Cn1nc(-c2ccccc2)cc1CSc1cc(N)nc2[nH]nnc12` [Example 33, 7-(((1-methyl-3-phenyl-1H-pyrazol-5-yl)methyl)thio)-3H-[1,2,3]triazolo[4,5-b] pyridin-5-amine] belongs 60 to 200 nM; to `Nc1cc(SCc2cn(-c3ccccc3)nn2)c2nn[nH]c2n1` [Example 34, 7-(((1-phenyl-1H-1,2,3-triazol-4-yl)methyl)thio)-3H-[1,2,3]triazolo[4,5-b]pyridin-5-amine], 60 to 200 nM; to `Nc1cc(SCc2ccccc2CS(=O)(=O)c2ccccc2)c2nn[nH]c2n1` [Example 35, 7-((2-((phenylsulfonyl)methyl)benzyl)thio)-3H-[1,2,3]triazolo[4,5-b]pyridin-5-amine], 60 to 200 nM. On to `CCn1nc(C(F)(F)F)cc1CSc1cc(N)nc2[nH]nnc12` [Example 36, 7-(((1-ethyl-3-(trifluoromethyl)-1H-pyrazol-5-yl)methyl)thio)-3H-[1,2,3]triazolo[4,5-b] pyridin-5-amine], for which the IC50 fell in the range of 200 to 1000 nM.

`Cc1oc(-c2c(F)cc(F)cc2F)nc1CSc1cc(N)nc2[nH]nnc12` [Example 37, 7-(((5-methyl-2-(2,4,6-trifluorophenyl)oxazol-4-yl)methyl)thio)-3H-[1,2,3] triazolo[4,5-b]pyridin-5-amine]: the IC50 was in the range of 200 to 1000 nM. The figure for `Nc1cc(SC(c2ccccc2)C(F)(F)F)c2nn[nH]c2n1` (centres unmarked) [Example 38, 7-((2,2,2-trifluoro-1-phenylethyl)thio)-3H-[1,2,3] triazolo[4,5-b]pyridin-5-amine] is 200 to 1000 nM; for `Nc1cc(SC(C(=O)c2ccccc2)c2ccccc2)c2nn[nH]c2n1` (centres unmarked) [Example 40, 2-((5-amino-3H-[1,2,3]triazolo[4,5-b]pyridin-7-yl)thio)-1,2-diphenylethanone] it is 200 to 1000 nM; for `CS(=O)(=O)c1cc(Br)cc(F)c1CSc1cc(N)nc2[nH]nnc12` [Example 42, 7-((4-bromo-2-fluoro-6-(methylsulfonyl)benzyl)thio)-3H-[1,2,3]triazolo[4,5-b]pyridin-5-amine] it is at most 60 nM.

With `Nc1cc(SCc2c(F)ccc(Br)c2F)c2nn[nH]c2n1` [Example 43, 7-((3-bromo-2,6-difluorobenzyl)thio)-3H-[1,2,3]triazolo[4,5-b]pyridin-5-amine], the IC50 is at most 60 nM. To `CN(C)CCC(Sc1cc(N)nc2[nH]nnc12)c1ccccc1` (centres unmarked) [Example 44, 7-((3-(dimethylamino)-1-phenylpropyl)thio)-3H-[1,2,3]triazolo[4,5-b]pyridin-5-amine] belongs 60 to 200 nM; to `Nc1cc(SC(c2ccccc2)C(O)c2ccccc2)c2nn[nH]c2n1` (centres unmarked) [Example 46, 2-((5-amino-3H-[1,2,3]triazolo[4,5-b]pyridin-7-yl)thio)-1,2-diphenylethanol], 60 to 200 nM.

For the compound `N#Cc1ccc(CSc2cc(N)nc3[nH]nnc23)c(F)c1` [Example 47, 4-(((5-amino-3H-[1,2,3]triazolo[4,5-b]pyridin-7-yl)thio)methyl)-3-fluorobenzonitrile], the IC50 was at most 60 nM.
